We go through two molecules from patent US5434246A, “Parathyroid hormone derivatives” (Takeda Chemical Industries, Ltd., priority 1992, dated 1995).

Ends that are not written are not given here.

The assay addresses T1, PTH receptor (Mus musculus, UniProt P41593).
T1 construct: a mouse cranial bone-derived osteoblast-like cell strain, MC3T3-EI cells; endogenous in cells; host or cells: MC3T3-E1 mouse osteoblast-like cells
T1 sequence (P41593 27-591): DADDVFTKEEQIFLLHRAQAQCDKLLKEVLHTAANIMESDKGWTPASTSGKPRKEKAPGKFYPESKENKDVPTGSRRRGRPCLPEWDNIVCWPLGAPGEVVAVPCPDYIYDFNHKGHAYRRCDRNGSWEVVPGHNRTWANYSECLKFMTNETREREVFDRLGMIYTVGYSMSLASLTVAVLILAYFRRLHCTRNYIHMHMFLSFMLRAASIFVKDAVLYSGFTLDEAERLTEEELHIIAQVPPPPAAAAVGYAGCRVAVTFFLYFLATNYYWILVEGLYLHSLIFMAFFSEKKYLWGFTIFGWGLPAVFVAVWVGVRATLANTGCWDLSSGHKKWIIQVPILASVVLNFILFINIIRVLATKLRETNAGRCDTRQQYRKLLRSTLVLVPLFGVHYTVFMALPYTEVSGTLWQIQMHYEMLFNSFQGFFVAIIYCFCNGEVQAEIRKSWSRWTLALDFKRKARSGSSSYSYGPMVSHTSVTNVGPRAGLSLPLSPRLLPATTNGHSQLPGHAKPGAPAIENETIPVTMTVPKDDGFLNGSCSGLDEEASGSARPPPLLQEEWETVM
Put plainly: cAMP production in MC3T3-EI osteoblast-like cells (biological activity of PTH(1-34) derivatives). It is filed as cell-based. As to conditions: 0.01-100 nM derivative, room temperature 30 minutes, hPTH(1-34) standard = 1.00. Here is the method:
The biological activity of the PTH (1-34) derivatives was evaluated by a modified version of the method reported by Shigeno et al. in The Journal of Biological Chemistry 263, 18369-18377 (1988). A culture solution (Hank's solution, containing 20 mM N-2-hydroxyethylpiperazine-N'-2-ethanesulfonic acid-(HEPES), 0.1% bovine serum albumin and 0.5 mM isobutylmethyl-xanthine) containing a 0.01, 0.1, 1, 10 or 100 nM derivative was added in an amount of 100 μl to a mouse cranial bone-derived osteoblast-like cell strain, MC3T3-EI cells, cultivated on a 96-well multiplate (Nunclon, Nunc), followed by reaction at room temperature for 30 minutes. After addition of 100 μl of 0.2N hydrochloric acid, the mixture was immersed in boiling water for 2.5 minutes, and cyclic adenosine monophosphate (cAMP) produced by a PTH receptor was extracted from the cells. The total cAMP in the culture solution and the cells was assayed using a commercial radioimmunoassay kit (cyclic AMP [^125 I] kit "Du Pont-Daiichi", Daiichi Kagaku Yakuhin).

Turning to `CC[C@H](C)[C@H](NC(=O)[C@H](CCC(=O)O)NC(=O)[C@H](CO)NC(=O)[C@@H](NC(=O)[C@@H](N)CO)C(C)C)C(=O)N[C@@H](CCC(N)=O)C(=O)N[C@@H](CC(C)C)C(=O)N[C@@H](CCSC)C(=O)N[C@@H](Cc1c[nH]cn1)C(=O)N[C@@H](CC(N)=O)C(=O)N[C@@H](CC(C)C)C(=O)NCC(=O)N[C@@H](CCCCN)C(=O)N[C@@H](Cc1c[nH]cn1)C(=O)N[C@@H](CC(C)C)C(=O)N[C@@H](CCC(N)=O)C(=O)N[C@@H](CO)C(=O)N[C@@H](CCSC)C(=O)N[C@@H](CCC(=O)O)C(=O)N[C@@H](CCCNC(=N)N)C(=O)N[C@H](C(=O)N[C@@H](CCC(=O)O)C(=O)N[C@@H](Cc1c[nH]c2ccccc12)C(=O)N[C@@H](CC(C)C)C(=O)N[C@@H](CCCNC(=N)N)C(=O)N[C@@H](CCCCN)C(=O)N[C@@H](CCCCN)C(=O)N[C@@H](CC(C)C)C(=O)N[C@@H](CCC(N)=O)C(=O)N[C@@H](CC(=O)O)C(=O)N[C@H](C(=O)N[C@@H](Cc1c[nH]cn1)C(=O)N[C@@H](CC(N)=O)C(=O)N[C@@H](Cc1ccccc1)C(=O)O)C(C)C)C(C)C` [[Gln^16]hPTH(1-34)], the “Biological Activity, Represented by Relative Activity to hPTH(1-34)” value is given as 1.73. In the case of “SVSEIQLMHNLGKHLKDMERVEWLRKKLQDVHNF [[Lys^16,Asp^17]hPTH(I-34), [Lys^16 Asp^17]hPTH(1-3)]”, the “Biological Activity, Represented by Relative Activity to hPTH(1-34)” value came to 1.24.
